The supplement of paper PMC10307832

Assays:
Experiment in all cases: relative viability (nuclei count vs DMSO), 5 days (fraction); higher = more cells survive
HARA = test system: HARA
Procedure, shortened: (§1)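 Five library-drug doses in √10 steps were combined with a fixed anchor-drug dose, or a single drug was given alone, by pin tool to lung cancer cell lines in 1536-well plates the day after seeding. Nuclei were stained and counted after 5 days. Relative viability is the nuclei count in treated wells over that in vehicle wells, taken as the median of duplicate plates.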

PC-14 = test system: PC-14
Procedure, shortened: as §1

EKVX = test system: EKVX
Procedure, shortened: as §1

NCI-H358 = test system: NCI-H358
Procedure, shortened: as §1

NCI-H1993 = test system: NCI-H1993
Procedure, shortened: as §1

UMC-11 = test system: UMC-11
Procedure, shortened: as §1

NCI-H1395 = test system: NCI-H1395
Procedure, shortened: as §1

NCI-H1355 = test system: NCI-H1355
Procedure, shortened: as §1

NCI-H322M = test system: NCI-H322M
Procedure, shortened: as §1

NCI-H2347 = test system: NCI-H2347
Procedure, shortened: as §1

HOP-62 = test system: HOP-62
Procedure, shortened: as §1

NCI-H647 = test system: NCI-H647
Procedure, shortened: as §1

NCI-H522 = test system: NCI-H522
Procedure, shortened: as §1

NCI-H2009 = test system: NCI-H2009
Procedure, shortened: as §1

NCI-H2170 = test system: NCI-H2170
Procedure, shortened: as §1

NCI-H2228 = test system: NCI-H2228
Procedure, shortened: as §1

NCI-H1734 = test system: NCI-H1734
Procedure, shortened: as §1

COR-L23 = test system: COR-L23
Procedure, shortened: as §1

NCI-H838 = test system: NCI-H838
Procedure, shortened: as §1

NCI-H1793 = test system: NCI-H1793
Procedure, shortened: as §1

SK-MES-1 = test system: SK-MES-1
Procedure, shortened: as §1

NCI-H1755 = test system: NCI-H1755
Procedure, shortened: as §1

COR-L 105 = test system: COR-L 105
Procedure, shortened: as §1

NCI-H2342 = test system: NCI-H2342
Procedure, shortened: as §1

**Q.** What does the source list for `Clc1ccc(Nc2nnc(Cc3ccncc3)c3ccccc23)cc1` [Vatalanib] + Cc1nc(Nc2ncc(C(=O)Nc3c(C)cccc3Cl)s2)cc(N2CCN(CCO)CC2)n1 [Dasatinib] (partner 0.075 µM)?
**A.** relative viability (HARA; first compound 0.04 µM): 0.265; relative viability (HARA; first compound 0.1265 µM): 0.214; relative viability (HARA; first compound 0.4 µM): 0.284; relative viability (HARA; first compound 1.265 µM): 0.212; relative viability (HARA; first compound 4 µM): 0.248; relative viability (PC-14; first compound 0.04 µM): 0.318; relative viability (PC-14; first compound 0.1265 µM): 0.248; relative viability (PC-14; first compound 0.4 µM): 0.34; relative viability (PC-14; first compound 1.265 µM): 0.244; relative viability (PC-14; first compound 4 µM): 0.245; relative viability (EKVX; first compound 0.04 µM): 0.651; relative viability (EKVX; first compound 0.1265 µM): 0.5; relative viability (EKVX; first compound 0.4 µM): 0.585; relative viability (EKVX; first compound 1.265 µM): 0.397; relative viability (EKVX; first compound 4 µM): 0.4; relative viability (NCI-H358; first compound 0.04 µM): 0.164; relative viability (NCI-H358; first compound 0.1265 µM): 0.194; relative viability (NCI-H358; first compound 0.4 µM): 0.165; relative viability (NCI-H358; first compound 1.265 µM): 0.162; relative viability (NCI-H358; first compound 4 µM): 0.169; relative viability (NCI-H1993; first compound 0.04 µM): 0.727; relative viability (NCI-H1993; first compound 0.1265 µM): 0.651; relative viability (NCI-H1993; first compound 0.4 µM): 0.574; relative viability (NCI-H1993; first compound 1.265 µM): 0.552; relative viability (NCI-H1993; first compound 4 µM): 0.578; relative viability (UMC-11; first compound 0.04 µM): 0.422; relative viability (UMC-11; first compound 0.1265 µM): 0.496; relative viability (UMC-11; first compound 0.4 µM): 0.444; relative viability (UMC-11; first compound 1.265 µM): 0.442; relative viability (UMC-11; first compound 4 µM): 0.45; relative viability (NCI-H1395; first compound 0.04 µM): 0.456; relative viability (NCI-H1395; first compound 0.1265 µM): 0.392; relative viability (NCI-H1395; first compound 0.4 µM): 0.384; relative viability (NCI-H1395; first compound 1.265 µM): 0.389; relative viability (NCI-H1395; first compound 4 µM): 0.407; relative viability (NCI-H1355; first compound 0.04 µM): 0.75; relative viability (NCI-H1355; first compound 0.1265 µM): 0.728; relative viability (NCI-H1355; first compound 0.4 µM): 0.778; relative viability (NCI-H1355; first compound 1.265 µM): 0.603; relative viability (NCI-H1355; first compound 4 µM): 0.633; relative viability (NCI-H322M; first compound 0.04 µM): 0.248; relative viability (NCI-H322M; first compound 0.1265 µM): 0.238; relative viability (NCI-H322M; first compound 0.4 µM): 0.256; relative viability (NCI-H322M; first compound 1.265 µM): 0.247; relative viability (NCI-H322M; first compound 4 µM): 0.256; relative viability (NCI-H2347; first compound 0.04 µM): 0.295; relative viability (NCI-H2347; first compound 0.1265 µM): 0.352; relative viability (NCI-H2347; first compound 0.4 µM): 0.342; relative viability (NCI-H2347; first compound 1.265 µM): 0.28; relative viability (NCI-H2347; first compound 4 µM): 0.385; relative viability (HOP-62; first compound 0.04 µM): 0.786; relative viability (HOP-62; first compound 0.1265 µM): 0.563; relative viability (HOP-62; first compound 0.4 µM): 0.712; relative viability (HOP-62; first compound 1.265 µM): 0.635; relative viability (HOP-62; first compound 4 µM): 0.602; relative viability (NCI-H647; first compound 0.04 µM): 0.205; relative viability (NCI-H647; first compound 0.1265 µM): 0.184; relative viability (NCI-H647; first compound 0.4 µM): 0.212; relative viability (NCI-H647; first compound 1.265 µM): 0.191; relative viability (NCI-H647; first compound 4 µM): 0.148; relative viability (NCI-H522; first compound 0.04 µM): 0.843; relative viability (NCI-H522; first compound 0.1265 µM): 0.857; relative viability (NCI-H522; first compound 0.4 µM): 0.912; relative viability (NCI-H522; first compound 1.265 µM): 1.04; relative viability (NCI-H522; first compound 4 µM): 0.828; relative viability (NCI-H2009; first compound 0.04 µM): 0.288; relative viability (NCI-H2009; first compound 0.1265 µM): 0.256; relative viability (NCI-H2009; first compound 0.4 µM): 0.35; relative viability (NCI-H2009; first compound 1.265 µM): 0.303; relative viability (NCI-H2009; first compound 4 µM): 0.283; relative viability (NCI-H2170; first compound 0.04 µM): 0.521; relative viability (NCI-H2170; first compound 0.1265 µM): 0.486; relative viability (NCI-H2170; first compound 0.4 µM): 0.556; relative viability (NCI-H2170; first compound 1.265 µM): 0.483; relative viability (NCI-H2170; first compound 4 µM): 0.507; relative viability (NCI-H2228; first compound 0.04 µM): 0.494; relative viability (NCI-H2228; first compound 0.1265 µM): 0.483; relative viability (NCI-H2228; first compound 0.4 µM): 0.595; relative viability (NCI-H2228; first compound 1.265 µM): 0.482; relative viability (NCI-H2228; first compound 4 µM): 0.447; relative viability (NCI-H1734; first compound 0.04 µM): 0.512; relative viability (NCI-H1734; first compound 0.1265 µM): 0.432; relative viability (NCI-H1734; first compound 0.4 µM): 0.501; relative viability (NCI-H1734; first compound 1.265 µM): 0.47; relative viability (NCI-H1734; first compound 4 µM): 0.422; relative viability (COR-L23; first compound 0.04 µM): 0.502; relative viability (COR-L23; first compound 0.1265 µM): 0.502; relative viability (COR-L23; first compound 0.4 µM): 0.651; relative viability (COR-L23; first compound 1.265 µM): 0.414; relative viability (COR-L23; first compound 4 µM): 0.519; relative viability (NCI-H838; first compound 0.04 µM): 0.325; relative viability (NCI-H838; first compound 0.1265 µM): 0.277; relative viability (NCI-H838; first compound 0.4 µM): 0.292; relative viability (NCI-H838; first compound 1.265 µM): 0.275; relative viability (NCI-H838; first compound 4 µM): 0.273; relative viability (NCI-H1793; first compound 0.04 µM): 0.379; relative viability (NCI-H1793; first compound 0.1265 µM): 0.377; relative viability (NCI-H1793; first compound 0.4 µM): 0.458; relative viability (NCI-H1793; first compound 1.265 µM): 0.349; relative viability (NCI-H1793; first compound 4 µM): 0.4; relative viability (SK-MES-1; first compound 0.04 µM): 0.346; relative viability (SK-MES-1; first compound 0.1265 µM): 0.439; relative viability (SK-MES-1; first compound 0.4 µM): 0.32; relative viability (SK-MES-1; first compound 1.265 µM): 0.348; relative viability (SK-MES-1; first compound 4 µM): 0.34; relative viability (NCI-H1755; first compound 0.04 µM): 0.496; relative viability (NCI-H1755; first compound 0.1265 µM): 0.418; relative viability (NCI-H1755; first compound 0.4 µM): 0.514; relative viability (NCI-H1755; first compound 1.265 µM): 0.413; relative viability (NCI-H1755; first compound 4 µM): 0.381; relative viability (COR-L 105; first compound 0.04 µM): 0.294; relative viability (COR-L 105; first compound 0.1265 µM): 0.32; relative viability (COR-L 105; first compound 0.4 µM): 0.404; relative viability (COR-L 105; first compound 1.265 µM): 0.316; relative viability (COR-L 105; first compound 4 µM): 0.326; relative viability (NCI-H2342; first compound 0.04 µM): 0.292; relative viability (NCI-H2342; first compound 0.1265 µM): 0.324; relative viability (NCI-H2342; first compound 0.4 µM): 0.278; relative viability (NCI-H2342; first compound 1.265 µM): 0.312; relative viability (NCI-H2342; first compound 4 µM): 0.295
